Measurements: patent US20060112439A1, “Delta opioid receptor disruptions, compositions and methods related thereto” (priority 2001, published 2006)

Tested on: mice (F2N1 wild-type and delta-opioid receptor homozygous mutant)
Assay: Metrazol Test (seizure susceptibility; tail vein infusion of pentylenetetrazole)
Assay type: in vivo, mouse
Conditions: n=10, about 5 mg/ml infused via tail vein at about 0.375 ml/min
Protocol: A metrazol administration test can be used to screen animals for varying susceptibilities to seizures or similar events. For example, a 5 mg/ml solution of metrazol can be infused through the tail vein of a mouse at a rate of, e.g., approximately 0.375 ml/min. The infusion will cause all mice to experience seizures, followed by death. Those mice that enter the seizure stage the soonest are believed to be more prone to seizures.
To screen for phenotypes involving changes in seizure susceptibility, the Metrazol Test was be used. About 5 mg/ml of Metrazol was infused through the tail vein of the mouse at a constant rate of about 0.375 ml/min. The infusion caused all mice to experience seizures. Those mice entering the seizure stage the quickest were thought to be more prone to seizures in general.
The Metrazol test can also be used to screen for phenotypes related to epilepsy. Ten adult F2N1 wild-type control male mice and ten F2N1 homozygous mutant males were used, all derived from the same ES cell line. A fresh solution of about 5 mg/ml pentylenetetrazole in approximately 0.9% NaCl was prepared prior to testing. Mice were weighed and loosely held in a restrainer. After exposure to a heat lamp to dilate the tail vein, mice were continuously infused with the pentylenetetrazole solution using a syringe pump set at a constant flow rate. The following stages were recorded: first twitch (sometimes accompanied by a squeak), beginning of the tonic/clonic seizure, tonic extension and survival time. The dose required for each phase was determined and the latency to each phase was determined between genotypes. Alterations in any stage may indicate an overall imbalance in excitatory or inhibitory neurotransmitter levels.

[1] = F2N1 delta-opioid receptor homozygous mutant (−/−) male mice

For `C1CCc2nnnn2CC1` [metrazol, pentylenetetrazole], the “Dose (average ± std dev) to death” value [1] was 121.96 ± 31.09 mg/kg, the “Dose (average ± std dev) to first twitch” value [1] was 30.97 ± 5.20 mg/kg and the “Dose (average ± std dev) to tonic extension” value [1] was 97.59 ± 32.27 mg/kg. For the same molecule, the “Dose (average ± std dev) to tonic/clonic seizure” value [1] was 53.48 ± 12.44 mg/kg, the “Dose (average ± std dev) to death” value (F2N1 wild-type (+/+) male mice) was 181.91 ± 83.20 mg/kg and the “Dose (average ± std dev) to first twitch” value (F2N1 wild-type (+/+) male mice) was 28.23 ± 5.58 mg/kg. For the same molecule, the “Dose (average ± std dev) to tonic extension” value (F2N1 wild-type (+/+) male mice) was 126.54 ± 23.60 mg/kg and the “Dose (average ± std dev) to tonic/clonic seizure” value (F2N1 wild-type (+/+) male mice) was 39.62 ± 8.21 mg/kg.
